The values that follow come from US4446136A, “Agents for improvement of peripheral blood flow” (Yamanouchi Pharmaceutical Co., Ltd., priority 1980, dated 1984).

The subject of series [1] is blood flow in microvessels. The experiment in a line: Effects on microcirculation in vivo in mesenterium of rabbit with lowered blood pressure (Experiment 3). The conditions noted are these: other substances, anesthetized rabbit, low arterial blood pressure.
The subject of the next series is Rat. The experiment in a line: Acute toxicity (LD50) in rat. The series is classed as in vivo. The arrangement: unit not given here. The conditions noted are these: intravenous, intraperitoneal, subcutaneous.
Series [2] has as its system Lung fibroblasts of human embryo. The experiment in a line: Toxicity of gelatin to cells in culture. The series is classed as cell-based.
Series [3] in a line: Antigenic activity of gelatin. The conditions noted are these: by itself.
The subject of the next series is HeLa S3. As to the kind of experiment: Toxicity of gelatin to cells in culture. The series is classed as cell-based.
Series [4] has as its system EB virus transformed lymphoblastoid cells P3HR-1. The experiment in a line: Toxicity of gelatin to cells in culture. The series is classed as cell-based.
The test system of another series is erythrocytes. The experiment in a line: Dose-response of gelatin on filtration and hemolysis of erythrocytes (Experiment 4(i)). The series is classed as cell-based. Here is the method: (i) Following procedures similar to the Experiment 2 using a concentration of gelatin between 0-2.0 mg/ml, effects of the substance on the filtration ratios of erythrocytes through the membrane filter and the ratio of hemolysis were examined at various concentrations of gelatin.

For a further series, the system named is Sheep. As to the kind of experiment: Acute toxicity (LD50 of gelatin) in sheep. The series is classed as in vivo. The arrangement: unit not given here. The conditions noted are these: intravenous, intraperitoneal, subcutaneous.
Series [5] can be described thus: Acute toxicity, overall (Experiment 5). The series is classed as in vivo. The conditions noted are these: summary of Tables 1, 2 and 3.

Description for human erythrocytes: A mixture of 1 part of human blood and 1 part (v/v) of preservative solution (sodium citrate buffer containing glucose) was washed 4 to 5 times with physiological saline solution and then 2% (by volume) erythrocyte solution was prepared in physiological saline. In the next step, physiological saline solutions containing 0.05% gelatin, 0.1% α1 -acid glycoprotein, 0.1% polyethylene glycol, 0.1% γ-globulin, 0.1% ovomucoid, 0.1% dextran, 0.1% dextran sulfate, 0.1% chondroitin sulfate, or physiological saline alone were mixed with an equal volume of the erythrocyte suspension, and then each mixture was shaken mildly for 30 min at 37° C. Thereafter 1 ml of each mixture was subjected to filtration through a nitrocellulose membrane filter (13 mm in diameter and 5 μm in average size of micropores, made by Sartorius Co.) at 37° C. under a pressure of 80 mmHg/cm^2. The filtrate was immediately subjected to centrifugation for 2 min at 1,500 r.p.m. and from the supernatant, the ratio of hemolysis during filtration was calculated based on absorbance at 420 nm. As to the erythrocytes remaining on the filter, 5 ml of deionized water was added to the erythrocytes on the membrane filter by placing into a test tube, and the resulting hemolysis due to hypotonicis permitted a measurement of absorbance at 420 nm to calculate the ratio of filtered erythrocytes through the membrane.

dextran sulfate [reference compound]: the “erythrocytes hemolysed during filtration” value in the series with human erythrocytes (human, erythrocytes) is 25-30%. In [1], the “actions on microcirculation as observed for gelatin” value was “did not exert any actions on microcirculation”.

Turning to gelatin, the LD50 of gelatin in the series on Rat and in the series on Sheep was > 1,000 in each case. Moreover, the “Toxicity (50% growth inhibition)” value (in series [2]; in the series on HeLa S3; in series [4]) was greater than 100 µg/mL in each case. Besides, in the series on human erythrocytes (0.05% gelatin, 0.1% other substances, 5 μm micropores, 37° C., 80 mmHg/cm^2), the “ratio of passage (filtration) of erythrocytes through the filter” value is “increased remarkably”. For the same substance, the “ratio of hemolysis during filtration (in words)” value in the series with human erythrocytes (0.05% gelatin, 5 μm micropores, 37° C., vs physiological saline control) is “reduced”. Also, the antigenic activity entry in series [3] is reported as “no antigenic activity”. Further, the “filtration ratio on further increase in concentration” value with erythrocytes (above 0.5 mg/ml gelatin) is “did not improve the filtration ratio”. The “concentration at which filtration ratio of erythrocytes reached plateau” value in the series with erythrocytes (gelatin 0-2.0 mg/ml) worked out at 0.5 mg/mL. Moreover, the “acute toxicity (in words)” value in series [5] is on record as “very mild”.
